In US20260015350A1, “AZAQUINAZOLINE PAN-KRAS INHIBITORS” (Mirati Therapeutics, Inc., priority 2022, published 2026) one finds IC50 and inhibition data, which are given here for nine molecules.

One assay deals with T1, KRas^G12V (Homo sapiens, UniProt P01116, G12V).
T1 construct: Biotinylated KRas (corresponding to amino acids 1-169, produced at Accelegan Inc.); biotin (biotinylated); purchased Accelegan Inc
Put plainly: KRas binding assay (TR-FRET tracer displacement), KRas G12V. (In general: TR-FRET usually uses a lanthanide donor and a delayed reading to cut background.)

For assay [1], the system named is KRas-mediated phosphorylation of ERK in H460 cells. Put plainly: Inhibition of KRas-mediated phosphorylation of ERK (Cisbio HTRF pERK), H460 cells. It counts as cell-based. Particulars: Homo sapiens; for IC50: NCI-H460, HTRF pERK. In short, it runs like this:
(§1)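 Min control wells contained 0.2 uM Trametinib, while test compounds ran as 10 doses (3-fold, top 10 uM; 0.8% DMSO final) on cells for 3 hrs. After 40 mins lysis at 4° C, lysates were probed with HTRF antibodies for 2 hrs at room temperature.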

The test system of assay [2] is KRas-mediated phosphorylation of ERK in HCT116 cells. Put plainly: Inhibition of KRas-mediated phosphorylation of ERK (Cisbio HTRF pERK), HCT116 cells. It counts as cell-based. As to conditions: Homo sapiens; for IC50: HCT-116, HTRF pERK. The method, boiled down: (§2)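 Phosphorylated ERK was quantified by HTRF using d2-conjugate and Cryptate antibodies added to lysates for 2 hrs at room temperature.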

Assay [3] concerns KRas-mediated phosphorylation of ERK in AsPC-1 cells. Put plainly: Inhibition of KRas-mediated phosphorylation of ERK (Cisbio HTRF pERK), AsPC-1 cells. The format is cell-based. As to conditions: Homo sapiens; for IC50: ASPC1, AsPC-1 cells, HTRF pERK. The method, boiled down:
as §1

The test system of assay [4] is KRas-mediated phosphorylation of ERK in H358 cells. Put plainly: Inhibition of KRas-mediated phosphorylation of ERK (Cisbio HTRF pERK), H358 cells. It counts as cell-based. Particulars: Homo sapiens; for IC50: NCI-H358, HTRF pERK. In short, it runs like this: as §1
For assay [5], the system named is KRas-mediated phosphorylation of ERK in H727 cells. As to the kind of experiment: Inhibition of KRas-mediated phosphorylation of ERK (Cisbio HTRF pERK), H727 cells. The format is cell-based. As to conditions: Homo sapiens; for IC50: NCI-H727, H727 cells, HTRF pERK. In short, it runs like this: as §1
For assay [6], the system named is KRas-mediated phosphorylation of ERK in PSN1 cells. Put plainly: Inhibition of KRas-mediated phosphorylation of ERK (Cisbio HTRF pERK), PSN1 cells. The format is cell-based. Particulars: Homo sapiens. In short, it runs like this:
(§3)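 HTRF pERK read-out; 6,000 cells/well, RPMI_10% FBS, overnight 37° C./5% CO2; 4 h covered incubation at RT before reading.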

The target in the next assay is T2, KRas^G12R (Homo sapiens, UniProt P01116, G12R).
T2 construct: Biotinylated KRas (corresponding to amino acids 1-169, produced at Accelegan Inc.); biotin (biotinylated); purchased Accelegan Inc
Put plainly: KRas binding assay (TR-FRET tracer displacement), KRas G12R.

In the next assay the target is T3, KRas^G12D (Homo sapiens, UniProt P01116, G12D).
T3 construct: Biotinylated KRas (corresponding to amino acids 1-169, produced at Accelegan Inc.); biotin (biotinylated); purchased Accelegan Inc
As to the kind of experiment: KRas binding assay (TR-FRET tracer displacement), KRas G12D.

The subject of assay [7] is KRas-mediated phosphorylation of ERK in A549 cells. Put plainly: Inhibition of KRas-mediated phosphorylation of ERK (Cisbio HTRF pERK), A549 cells. It counts as cell-based. As to conditions: Homo sapiens; for IC50: HTRF pERK. In short, it runs like this:
as §2

The test system of assay [8] is KRas-mediated phosphorylation of ERK in MKN1 cells. As to the kind of experiment: Inhibition of KRas-mediated phosphorylation of ERK (Cisbio HTRF pERK), MKN1 cells. The format is cell-based. Particulars: Homo sapiens, MKN-1. In short, it runs like this:
as §3

T3 sequence (P01116 1-169 isoform P01116-2 G12D): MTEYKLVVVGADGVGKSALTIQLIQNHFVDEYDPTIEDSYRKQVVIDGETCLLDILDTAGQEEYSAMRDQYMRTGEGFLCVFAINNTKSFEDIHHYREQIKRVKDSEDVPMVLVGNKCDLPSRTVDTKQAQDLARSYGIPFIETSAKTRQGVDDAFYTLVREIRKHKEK
T1 sequence (P01116 1-169 isoform P01116-2 G12V): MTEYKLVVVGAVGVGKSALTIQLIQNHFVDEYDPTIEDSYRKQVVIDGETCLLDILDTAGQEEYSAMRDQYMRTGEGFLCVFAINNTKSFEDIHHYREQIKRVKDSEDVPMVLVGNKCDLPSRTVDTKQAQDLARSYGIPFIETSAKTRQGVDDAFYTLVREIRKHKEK
T2 sequence (P01116 1-169 isoform P01116-2 G12R): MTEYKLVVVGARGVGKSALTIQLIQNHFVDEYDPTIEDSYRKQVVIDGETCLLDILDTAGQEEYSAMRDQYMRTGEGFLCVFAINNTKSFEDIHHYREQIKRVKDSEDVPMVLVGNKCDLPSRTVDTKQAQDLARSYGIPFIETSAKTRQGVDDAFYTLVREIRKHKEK

By IC50 is commonly meant the concentration at which inhibition is half-maximal. High values mean weaker potency, low ones greater potency. As usually defined, the inhibition is the relative decrease from the control value, in per cent. A higher inhibition goes with a response far below the control. Consider `CCc1c(F)ccc2cc(O)cc(-c3ncc4c(N5CCC[C@@](C)(O)C5)nc(OCC5(CN(C)C)CC56CC6)nc4c3F)c12` (stereo partly drawn) [Example 783, (3R)-1-(2-((1-((dimethylamino)methyl)spiro[2.2]pentan-1-yl)methoxy)-7-(8-ethyl-7-fluoro-3-hydroxynaphthalen-1-yl)-8-fluoropyrido[4,3-d]pyrimidin-4-yl)-3-methylpiperidin-3-ol], for which the IC50 is 2 nM at KRas^G12V; 52 nM in [3]; 187 nM in assay [5]; 9780 nM in assay [6]; 5 nM on KRas^G12R; 2 nM at KRas^G12D. Moreover, in [8], the IC50 is 19 nM. The inhibition at 0.1 µM in assay [1] (NCI-H460, 3 h, single point, 100 nM compound, 3 hrs) is 47%; in assay [2] (HCT-116, 3 h, single point, 100 nM compound, 3 hrs), 31%; in assay [3] (ASPC1, 3 h, single point, 100 nM compound, 3 hrs, AsPC-1 cells), 47%; in assay [4] (NCI-H358, 3 h, single point, 100 nM compound, 3 hrs), 62%; in assay [5] (NCI-H727, 3 h, single point, 100 nM compound, 3 hrs, H727 cells), 12%; in assay [7] (A549, 3 h, single point, 100 nM compound, 3 hrs), 34%.
Regarding `CCc1c(F)ccc2cc(O)cc(-c3ncc4c(N5CCC[C@@](C)(O)C5)nc(OC[C@@]56CCCN5[C@H](COCC5CCCC5)CC6)nc4c3F)c12` [Example 904, (R)-1-(2-(((3S,7aS)-3-((cyclopentylmethoxy)methyl)tetrahydro-1H-pyrrolizin-7a(5H)-yl)methoxy)-7-(8-ethyl-7-fluoro-3-hydroxynaphthalen-1-yl)-8-fluoropyrido[4,3-d]pyrimidin-4-yl)-3-methylpiperidin-3-ol], the IC50 on KRas^G12V was below 2 nM; in [1] it was 53 nM; in assay [2], 167 nM; in assay [3] it was 30 nM; in assay [4], 21 nM; in assay [5], 121 nM. For the same molecule, the 50% inhibitory concentration (IC50) in [6] is 2510 nM; at KRas^G12R, below 2 nM; on KRas^G12D, below 2 nM; in assay [7], 112 nM; in assay [8], 4 nM.
Take `CCc1c(F)ccc2cc(O)cc(-c3ncc4c(N5CC6CCC(C5)C6C(N)=O)nc(OC[C@@]56CCCN5C[C@H](F)C6)nc4c3F)c12` (stereo partly drawn) [Example 861, 3-(7-(8-ethyl-7-fluoro-3-hydroxynaphthalen-1-yl)-8-fluoro-2-(((2R,7aS)-2-fluorohexahydro-1H-pyrrolizin-7a-yl)methoxy)pyrido[4,3-d]pyrimidin-4-yl)-3-azabicyclo[3.2.1]octane-8-carboxamide]: the IC50 on KRas^G12V was below 2 nM; in assay [1], 173 nM; in assay [2], 254 nM; in assay [3], 1450 nM; in assay [4], 45 nM; in [5], 592 nM. Further, the IC50 in assay [6] is above 10000 nM; at KRas^G12R, below 2 nM; at KRas^G12D, 4 nM; in assay [7] it was 1340 nM; in assay [8], 1 nM.
As to `CCc1c(F)ccc2cc(O)cc(-c3ncc4c(N5CC6CCC(C5)C6CO)nc(OC[C@@]56CCCN5C[C@H](F)C6)nc4c3F)c12` (stereo partly drawn) [Example 845, 5-ethyl-6-fluoro-4-(8-fluoro-2-(((2R,7aS)-2-fluorotetrahydro-1H-pyrrolizin-7a(5H)-yl)methoxy)-4-((1R,5S,8S)-8-(hydroxymethyl)-3-azabicyclo[3.2.1]octan-3-yl)pyrido[4,3-d]pyrimidin-7-yl)naphthalen-2-ol], the IC50 on KRas^G12V was found to be 10 nM; in [1] it was 80 nM; in [2], 159 nM; in assay [3], 1570 nM; in assay [4] it was 241 nM; in assay [5] it was 1150 nM. In addition, the IC50 in [6] amounted to 3460 nM; on KRas^G12R, 11 nM; on KRas^G12D it was 41 nM; in [7] it was 1190 nM; in assay [8], 64 nM.
As for `CCc1c(F)ccc2cc(O)cc(-c3ncc4c(N5CC6CCC(C5)C6C(=O)N(C)C)nc(OC[C@@]56CCCN5C[C@H](F)C6)nc4c3F)c12` (stereo partly drawn) [Example 858, (1R,5S,8S)-3-(7-(8-ethyl-7-fluoro-3-hydroxynaphthalen-1-yl)-8-fluoro-2-(((2R,7aS)-2-fluorotetrahydro-1H-pyrrolizin-7a(5H)-yl)methoxy)pyrido[4,3-d]pyrimidin-4-yl)-N,N-dimethyl-3-azabicyclo[3.2.1]octane-8-carboxamide], the IC50 on KRas^G12V amounted to 7 nM; in assay [1] it was 7 nM; in assay [2], 21 nM; in [3], 138 nM; in assay [4], 43 nM; in assay [5] it was 375 nM. The IC50 in assay [6] is above 10000 nM; on KRas^G12R, 10 nM; on KRas^G12D it was 6 nM; in assay [7] it was 19 nM; in [8] it was 3 nM.
On to `CCc1c(F)ccc2cc(O)cc(-c3ncc4c(N5CCC[C@@](C)(O)C5)nc(OC[C@]56CCCN5[C@H](COC)CC6)nc4c3F)c12` [Example 885, (R)-1-(7-(8-ethyl-7-fluoro-3-hydroxynaphthalen-1-yl)-8-fluoro-2-(((3S,7aR)-3-(methoxymethyl)tetrahydro-1H-pyrrolizin-7a(5H)-yl)methoxy)pyrido[4,3-d]pyrimidin-4-yl)-3-methylpiperidin-3-ol], for which the IC50 at KRas^G12V is below 2 nM; in assay [1] it was 8 nM; in [2] it was 16 nM; in assay [3], 14 nM; in assay [4], 7 nM; in assay [5], 39 nM. Moreover, the 50% inhibitory concentration (IC50) in [6] is 1320 nM; on KRas^G12R it was below 2 nM; on KRas^G12D, below 2 nM; in assay [7], 30 nM; in assay [8], 5 nM.
For `CCc1c(F)ccc2cc(O)cc(-c3ncc4c(N5CC6CCC(C5)C6C)nc(OC[C@@]56CCCN5C[C@H](F)C6)nc4c3F)c12` (stereo partly drawn) [Example 862, 5-ethyl-6-fluoro-4-(8-fluoro-2-(((2R,7aS)-2-fluorohexahydro-1H-pyrrolizin-7a-yl)methoxy)-4-((1R,5S,8S)-8-methyl-3-azabicyclo[3.2.1]octan-3-yl)pyrido[4,3-d]pyrimidin-7-yl)naphthalen-2-ol], the 50% inhibitory concentration (IC50) on KRas^G12V stood at 60 nM; in assay [1] it was 1110 nM; in assay [2], 2870 nM; in [3] it was 6210 nM; in [4], 1680 nM; in assay [5] it was 3700 nM. Moreover, the IC50 in assay [6] is above 10000 nM; at KRas^G12R, 95 nM; on KRas^G12D it was 311 nM; in assay [7] it was 7210 nM; in assay [8], 196 nM.
Consider `CCc1c(F)ccc2cc(O)cc(-c3ncc4c(N5CC6CCC(CO)(C6)C5)nc(OC[C@@]56CCCN5C[C@H](F)C6)nc4c3F)c12` (stereo partly drawn) [Example 812, 5-ethyl-6-fluoro-4-(8-fluoro-2-(((2R,7aS)-2-fluorotetrahydro-1H-pyrrolizin-7a(5H)-yl)methoxy)-4-(1-(hydroxymethyl)-3-azabicyclo[3.2.1]octan-3-yl)pyrido[4,3-d]pyrimidin-7-yl)naphthalen-2-ol], for which the IC50 turned out to be 4 nM at KRas^G12V; 166 nM in assay [1]; 324 nM in [2]; 743 nM in assay [3]; 177 nM in [4]; 363 nM in assay [5]. Besides, the IC50 in assay [6] was above 10000 nM; on KRas^G12R it was 6 nM; on KRas^G12D, 12 nM; in assay [7], 922 nM; in assay [8] it was 68 nM.
Regarding `C#Cc1c(F)ccc2cc(O)cc(-c3ncc4c(N5CCCC6(CC(O)C6)C5)nc(OC[C@]56CCCN5[C@H](COC(=O)N(C)C)CC6)nc4c3F)c12` (stereo partly drawn) [Example 835, ((3S,7aR)-7a-(((7-(8-ethynyl-7-fluoro-3-hydroxynaphthalen-1-yl)-8-fluoro-4-(2-hydroxy-6-azaspiro[3.5]nonan-6-yl)pyrido[4,3-d]pyrimidin-2-yl)oxy)methyl)hexahydro-1H-pyrrolizin-3-yl)methyl dimethylcarbamate], the IC50 is below 2 nM at KRas^G12V; 72 nM in assay [1]; 137 nM in assay [2]; 146 nM in [3]; 31 nM in [4]; 72 nM in assay [5]. Further, the concentration for half-maximal inhibition (IC50) in assay [6] is 1620 nM; on KRas^G12R it was below 2 nM; on KRas^G12D it was 3 nM; in assay [7], 192 nM; in assay [8], 20 nM.
